Measured values reported in patent US20230265116A1, “DEGRADATION OF (EGFR) BY CONJUGATION OF EGFR INHIBITORS WITH E3 LIGASE LIGAND AND METHODS OF USE” (BEIGENE, LTD., priority 2020, published 2023).
Read-outs that look alike come from different tables or passages of the source.

Columns and labels:
[1] = tested on: EGFR Del19/T790M/C797S (H1975-clone #28); test: EGFR degradation HTRF assay, H1975-clone #28 DTC cells; type: cell-based
Description: H1975-clone #28(Del19/T790M/C797S) and H1975-clone #23(Del19/C797S). EGFR-Del19/T790M/C797S and EGFR-Del19/C797S were stably expressed in H1975 cell lines by lentivirus-mediated over-expression, respectively. The EGFR over-expressed cells then underwent gene knockout, in which the EGFR targeting sgRNA was designed to only target the endogenous EGFR copies and preserve the exogenous EGFR copies. Followed by the gene knockout, the edited H1975 cells were seeded in 96 well plates at the concentration of 1 cell/well, cultured for about 2 weeks to allow single clones formation. The formed clones were screened by DNA sequencing and whole exon sequencing analysis for the desired edition. H1975-clone #28 and H1975-clone #23 were finally confirmed as homozygous Del19/T790M/C797S EGFR and Del19/C797S EGFR clones, respectively.
(§1) BaF3 WT(wild type), BaF3-LTC(L858R/T790M/C797S) and BaF3-DTC(Del19/T790M/C797S) cells are treated with compounds diluted in 0.2% DMSO cell culture medium and incubate for 16h, 37° C., 5% CO2, H1975-#36, H1975-#28, H1975-#23 and HCC827 cells are treated with compounds diluted in 0.2% DMSO cell culture medium on day 2, incubate for 16h, 37° C., 5% CO2.the final concentriation of compounds in all assay is start with 10 uM, 5-fold dilution, total 8 doses were included.
(§2) After 16h treatment, add HTRF lysis buffer to each well; seal the plate and incubate 1 hour at room temperature on a plate shaker; Once the cells are lysed, 16 μL of cell lysate are transferred to a PE 384-well HTRF detection plate; 4 μL of pre-mixed HTRF antibodies are added to each well; Cover the plate with a plate sealer, spin 1000 rpm for 1 min, Incubate overnight at room temperature; Read on BMG PheraStar with HTRF protocol (337 nm-665 nm-620 nm).
(§3) The inhibition (degradation) percentage of the compound was calculated by the following equation: Inhibition percentage of Compound=100-100×(Signal-low control)/(High control-low control), wherein signal=each test compound group
(§4) High control=Cell group with added DMSO and without compound, indicating microplate readings without EGFR degradation;
(§5) Dmax is the maximum percentage of inhibition (degradation).
(§6) The IC50 (DC50) value of a compound can be obtained by fitting the following equation
(§7) Y=Bottom+(TOP−Bottom)/(1+((IC50/X)^hillslope))
(§8) Wherein, X and Y are known values, and IC50, Hillslope, Top and Bottom are the parameters obtained by fitting with software. Y is the inhibition percentage (calculated from the equation), X is the concentration of the compound; IC50 is the concentration of the compound when the 50% inhibition is reached. The smaller the IC50 value is, the stronger the inhibitory ability of the compound is. Vice versa, the higher the IC50 value is, the weaker the inhibitory ability of the compound is; Hillslope represents the slope of the fitted curve, generally around 1*; Bottom represents the minimum value of the curve obtained by data fitting, which is generally 0%±20%; Top represents the maximum value of the curve obtained by data fitting, which is generally 100%±20%. The experimental data were fitted by calculating and analyzing with Dotmatics data analysis software.

[2] = biological target: T1, EGFR L858R/T790M/C797S (BaF3-LTC cells) (Homo sapiens, UniProt P00533, C797S/L858R/T790M); test: EGFR degradation HTRF assay, BaF3-LTC cells; type: cell-based
T1 construct: expressed in transfected cells; host or cells: BaF3
T1 sequence (P00533 25-1210 T790M/C797S/L858R): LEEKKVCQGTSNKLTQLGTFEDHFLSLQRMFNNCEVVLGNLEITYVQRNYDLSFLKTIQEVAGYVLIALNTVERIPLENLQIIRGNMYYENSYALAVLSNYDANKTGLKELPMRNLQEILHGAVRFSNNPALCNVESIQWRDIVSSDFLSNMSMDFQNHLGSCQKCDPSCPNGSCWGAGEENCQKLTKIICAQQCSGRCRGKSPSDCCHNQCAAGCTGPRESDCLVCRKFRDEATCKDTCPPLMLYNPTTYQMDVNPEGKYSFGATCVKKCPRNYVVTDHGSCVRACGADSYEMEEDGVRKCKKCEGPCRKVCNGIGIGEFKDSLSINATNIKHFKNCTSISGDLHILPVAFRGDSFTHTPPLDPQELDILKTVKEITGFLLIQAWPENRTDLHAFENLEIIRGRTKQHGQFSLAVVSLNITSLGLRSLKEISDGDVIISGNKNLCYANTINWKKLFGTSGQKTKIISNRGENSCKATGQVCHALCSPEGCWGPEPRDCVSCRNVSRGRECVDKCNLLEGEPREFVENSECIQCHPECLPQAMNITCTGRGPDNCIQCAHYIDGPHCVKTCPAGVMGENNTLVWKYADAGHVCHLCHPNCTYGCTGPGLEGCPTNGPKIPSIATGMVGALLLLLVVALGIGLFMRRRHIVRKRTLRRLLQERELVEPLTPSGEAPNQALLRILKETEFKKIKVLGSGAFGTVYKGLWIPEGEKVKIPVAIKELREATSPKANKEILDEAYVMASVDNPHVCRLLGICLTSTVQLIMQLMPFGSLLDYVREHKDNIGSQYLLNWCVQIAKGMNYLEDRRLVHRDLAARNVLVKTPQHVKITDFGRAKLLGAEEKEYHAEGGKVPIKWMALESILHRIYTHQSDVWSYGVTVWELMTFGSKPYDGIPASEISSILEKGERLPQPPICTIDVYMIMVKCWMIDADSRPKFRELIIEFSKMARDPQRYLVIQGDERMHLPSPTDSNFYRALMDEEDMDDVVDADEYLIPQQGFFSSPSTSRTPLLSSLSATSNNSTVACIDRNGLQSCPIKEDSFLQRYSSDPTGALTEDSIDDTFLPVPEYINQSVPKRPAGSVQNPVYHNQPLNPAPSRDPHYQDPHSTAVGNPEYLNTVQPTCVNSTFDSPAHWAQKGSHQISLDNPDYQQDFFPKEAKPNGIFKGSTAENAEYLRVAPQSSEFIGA
Description: as §1, §2, §3, §4, §5, §6, §7, §8

[3] = H1975 # 28 DTC cells; EGFR degradation, IC50 (DC50) from curve fit; read-out: DC50(nM) H1975 # 28 DTC
[4] = H1975 # 28 DTC cells; maximum percentage of inhibition (degradation)
[5] = BaF3-LTC cells; EGFR degradation, IC50 (DC50) from curve fit; read-out: DC50(nM) BaF3-LTC
[6] = BaF3-LTC cells; maximum percentage of inhibition (degradation); read-out: Dmax (%) BaF3-LTC
[7] = read-out: DC50(nM) H1975 # 28 DTC; H1975 # 28 DTC cells; EGFR degradation, IC50 (DC50) from curve fit
[8] = read-out: DC50(nM) BaF3-LTC; BaF3-LTC cells; EGFR degradation, IC50 (DC50) from curve fit
[9] = read-out: Dmax (%) BaF3-LTC, BaF3-LTC cells; maximum percentage of inhibition (degradation)

| DC50 [1, 3] | DC50 [2, 5] | Dmax [2, 6] | SMILES | Dmax (%) H1975 # 28 DTC [1, 4] | DC50 [1, 7] | DC50 [2, 8] | Dmax [2, 9] | Dmax (%) BaF3-LTC ([2]; BaF3-LTC cells; maximum percentage of inhibition (degradation)) |
| --- | --- | --- | --- | --- | --- | --- | --- | --- |
| 7.95 nM | 26.5 nM | 88% | CCOc1cc(N2CCC(N3CCN(C[C@@H]4CCN(c5cc(F)cc6c5oc(=O)n6C5CCC(=O)NC5=O)C4)CC3)CC2)c(CC)cc1Nc1ncc(Br)c(Nc2ccc3nc(CC)ccc3c2P(C)(C)=O)n1 (stereo partly drawn) [Example 476, 3-(7-((S)-3-((4-(1-(4-((5-bromo-4-((5-(dimethylphosphoryl)-2-ethylquinolin-6-yl)amino)pyrimidin-2-yl)amino)-5-ethoxy-2-ethylphenyl)piperidin-4-yl)piperazin-1-yl)methyl)pyrrolidin-1-yl)-5-fluoro-2-oxobenzo[d]oxazol-3(2H)-yl)piperidine-2,6-dione] | 74.62% |  |  |  |  |
|  |  |  | CCOc1cc(N2CCC(N3CCN(C(=O)[C@@H]4CCN(c5cc(F)cc6c5oc(=O)n6C5CCC(=O)NC5=O)C4)CC3)CC2)c(CC)cc1Nc1ncc(Br)c(Nc2ccc3nc(CC)ccc3c2P(C)(C)=O)n1 (stereo partly drawn) [Example 477, 3-(7-((R)-3-(4-(1-(4-((5-bromo-4-((5-(dimethylphosphoryl)-2-ethylquinolin-6-yl)amino)pyrimidin-2-yl)amino)-5-ethoxy-2-ethylphenyl)piperidin-4-yl)piperazine-1-carbonyl)pyrrolidin-1-yl)-5-fluoro-2-oxobenzo[d]oxazol-3(2H)-yl)piperidine-2,6-dione] | 73.35% | 4.24 nM | 7.16 nM | 82.7% |  |
|  |  |  | CCOc1cc(N2CCC(N3CCN(C(=O)[C@@H]4CCN(c5cccc6c5oc(=O)n6C5CCC(=O)NC5=O)C4)CC3)CC2)c(CC)cc1Nc1ncc(Br)c(Nc2ccc3nc(CC)ccc3c2P(C)(C)=O)n1 (stereo partly drawn) [Example 478, 3-(7-((R)-3-(4-(1-(4-((5-bromo-4-((5-(dimethylphosphoryl)-2-ethylquinolin-6-yl)amino)pyrimidin-2-yl)amino)-5-ethoxy-2-ethylphenyl)piperidin-4-yl)piperazine-1-carbonyl)pyrrolidin-1-yl)-2-oxobenzo[d]oxazol-3(2H)-yl)piperidine-2,6-dione] | 80.49% | 0.645 nM | 3.05 nM |  | 88.22% |
|  |  |  | CCOc1cc(N2CCC(N3CCN(C(=O)[C@H]4CN(c5cc(F)cc6c5oc(=O)n6C5CCC(=O)NC5=O)CC4(C)C)CC3)CC2)c(CC)cc1Nc1ncc(Br)c(Nc2ccc3nc(CC)ccc3c2P(C)(C)=O)n1 (stereo partly drawn) [Example 480, 3-(7-((R)-4-(4-(1-(4-((5-bromo-4-((5-(dimethylphosphoryl)-2-ethylquinolin-6-yl)amino)pyrimidin-2-yl)amino)-5-ethoxy-2-ethylphenyl)piperidin-4-yl)piperazine-1-carbonyl)-3,3-dimethylpyrrolidin-1-yl)-5-fluoro-2-oxobenzo[d]oxazol-3(2H)-yl)piperidine-2,6-dione] | 69.54% | 7.82 nM | 18.9 nM | 89.4% |  |
| 1 nM | 14.7 nM | 89.3% | CCc1ccc2c(P(C)(C)=O)c(Nc3nc(Nc4cc(CC)c(N5CCC(N6CCN(CC7CN(c8cc(F)c(C9CCC(=O)NC9=O)c(F)c8)C7)CC6)CC5)cc4OC)ncc3Br)ccc2n1 (stereo not shown) [Example 508, 3-(4-(3-((4-(1-(4-((5-bromo-4-((5-(dimethylphosphoryl)-2-ethylquinolin-6-yl)amino)pyrimidin-2-yl)amino)-2-ethyl-5-methoxyphenyl)piperidin-4-yl)piperazin-1-yl)methyl)azetidin-1-yl)-2,6-difluorophenyl)piperidine-2,6-dione] | 72.7% |  |  |  |  |
| 0.763 nM | 3.89 nM | 93.1% | CCc1cc(Nc2ncc(Br)c(Nc3cc(F)c4nc(C)ccc4c3P(C)(C)=O)n2)c(OC)cc1N1CCC(N2CCN(CCc3cc(F)c([C@H]4CCC(=O)NC4=O)c(F)c3)CC2)CC1 [Example 510, (R)-3-(4-(2-(4-(1-(4-((5-bromo-4-((5-(dimethylphosphoryl)-8-fluoro-2-methylquinolin-6-yl)amino)pyrimidin-2-yl)amino)-2-ethyl-5-methoxyphenyl)piperidin-4-yl)piperazin-1-yl)ethyl)-2,6-difluorophenyl)piperidine-2,6-dione] | 67.2% |  |  |  |  |
| 2.36 nM | 6.46 nM | 92% | CCc1cc(Nc2ncc(Br)c(Nc3cc(F)c4nc(C)ccc4c3P(C)(C)=O)n2)c(OC)cc1N1CCC(N2CCN(C(=O)C3CCN(c4cc(F)c(C5CCC(=O)NC5=O)c(F)c4)CC3)CC2)CC1 (stereo not shown) [Example 512, 3-(4-(4-(4-(1-(4-((5-bromo-4-((5-(dimethylphosphoryl)-8-fluoro-2-methylquinolin-6-yl)amino)pyrimidin-2-yl)amino)-2-ethyl-5-methoxyphenyl)piperidin-4-yl)piperazine-1-carbonyl)piperidin-1-yl)-2,6-difluorophenyl)piperidine-2,6-dione] | 60.54% |  |  |  |  |
| 1.37 nM | 10.2 nM | 85.2% | COc1cc(N2CCC(N3CCN(C(=O)[C@H]4CCN(c5cc(F)c(C6CCC(=O)NC6=O)c(F)c5)C4)CC3)CC2)c(C)cc1Nc1ncc(Br)c(Nc2ccc3c(=O)n(C)ncc3c2P(C)(C)=O)n1 (stereo partly drawn) [Example 513, 3-(4-((S)-3-(4-(1-(4-((5-bromo-4-((5-(dimethylphosphoryl)-2-methyl-1-oxo-1,2-dihydrophthalazin-6-yl)amino)pyrimidin-2-yl)amino)-5-methoxy-2-methylphenyl)piperidin-4-yl)piperazine-1-carbonyl)pyrrolidin-1-yl)-2,6-difluorophenyl)piperidine-2,6-dione] | 78.24% |  |  |  |  |
| 3.22 nM | 19.7 nM | 90.4% | CCc1ccc2c(P(C)(C)=O)c(Nc3nc(Nc4cc(CC)c(N5CCC(N6CCN(C(=O)[C@@H]7CCN(c8cc(F)c(C9CCC(=O)NC9=O)c(F)c8)C7)CC6)CC5)cc4OC)ncc3Br)ccc2n1 (stereo partly drawn) [Example 515, 3-(4-((R)-3-(4-(1-(4-((5-bromo-4-((5-(dimethylphosphoryl)-2-ethylquinolin-6-yl)amino)pyrimidin-2-yl)amino)-2-ethyl-5-methoxyphenyl)piperidin-4-yl)piperazine-1-carbonyl)pyrrolidin-1-yl)-2,6-difluorophenyl)piperidine-2,6-dione] | 66.35% |  |  |  |  |
| 0.968 nM | 7 nM | 91.3% | CCc1cc(Nc2ncc(Br)c(Nc3ccc4nc(C)ccc4c3P(C)(C)=O)n2)c(OC)cc1N1CCC(N2CCN(C(=O)C3CCN(c4cc(F)c(C5CCC(=O)NC5=O)c(F)c4)CC3)CC2)CC1 (stereo not shown) [Example 517, 3-(4-(4-(4-(1-(4-((5-bromo-4-((5-(dimethylphosphoryl)-2-methylquinolin-6-yl)amino)pyrimidin-2-yl)amino)-2-ethyl-5-methoxyphenyl)piperidin-4-yl)piperazine-1-carbonyl)piperidin-1-yl)-2,6-difluorophenyl)piperidine-2,6-dione] | 58.8% |  |  |  |  |
